Measurements as given in ChEMBL document CHEMBL1201862, “PubChem BioAssay data set” (2004).
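Grown in 96-well plates, cells were treated for 48 hours with each compound at five concentrations. Insufficient inhibition: endpoint recorded as highest concentration tested. GI50 = concentration required for 50% inhibition of growth.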 Activity calls are given as the source filed them. Rule as the data show it: active = GI50 up to about 1.1 µM and inactive = higher.

Assays:
Experiment in all cases: inhibition of tumour cell growth, NCI panel, 48 h
[1] = tested on: 786-0
[2] = tested on: A498
[3] = tested on: A549
[4] = tested on: ACHN
[5] = tested on: CAKI-1
[6] = tested on: CCRF-CEM
[7] = tested on: COLO 205
[8] = tested on: DU-145
[9] = tested on: EKVX
[10] = tested on: HCC 2998
[11] = tested on: HCT-116
[12] = tested on: HCT-15
[13] = tested on: HL-60
[14] = tested on: HOP-62
[15] = tested on: HOP-92
[16] = tested on: HT-29
[17] = tested on: Hs-578T
[18] = tested on: IGROV-1
[19] = tested on: K562
[20] = tested on: KM12
[21] = tested on: LOX IMVI
[22] = tested on: M14
[23] = tested on: MDA-MB-231
[24] = tested on: MDA-MB-435
[25] = tested on: MDA-N
[26] = tested on: MOLT-4
[27] = tested on: Malme-3M
[28] = tested on: NCI-H226
[29] = tested on: NCI-H23
[30] = tested on: NCI-H460
[31] = tested on: NCI-H522
[32] = tested on: NCI/ADR-RES
[33] = tested on: OVCAR-3
[34] = tested on: OVCAR-4
[35] = tested on: OVCAR-5
[36] = tested on: PC-3
[37] = tested on: RPMI-8226
[38] = tested on: RXF 393
[39] = tested on: SF-268
[40] = tested on: SF-295
[41] = tested on: SF-539
[42] = tested on: SK-MEL-28
[43] = tested on: SK-MEL-2
[44] = tested on: SK-MEL-5
[45] = tested on: SK-OV-3
[46] = tested on: SN12C
[47] = tested on: SNB-19
[48] = tested on: SNB-75
[49] = tested on: SR
[50] = tested on: SW-620
[51] = tested on: T47D
[52] = tested on: TK-10
[53] = tested on: U-251
[54] = tested on: UACC-62
[55] = tested on: UO-31
[56] = tested on: MCF7
[57] = tested on: OVCAR-8
[58] = tested on: UACC-257
[59] = tested on: BT-549

CC1(C)CC(=O)C2=C(C1)OC1=C(CC(C)(C)CC1=O)C2c1ccccc1[N+](=O)[O-] (stereo not given)
GI50 [1]: > 100 µM (inactive) | GI50 [2]: > 100 µM (inactive) | GI50 [3]: > 100 µM (inactive) | GI50 [4]: > 100 µM (inactive) | GI50 [5]: > 100 µM (inactive) | GI50 [6]: > 100 µM (inactive) | GI50 [7]: > 100 µM (inactive) | GI50 [8]: > 100 µM (inactive) | GI50 [9]: > 100 µM (inactive) | GI50 [10]: > 100 µM (inactive) | GI50 [11]: > 100 µM (inactive) | GI50 [12]: > 100 µM | GI50 [13]: > 100 µM (inactive) | GI50 [14]: > 100 µM (inactive) | GI50 [15]: > 100 µM (inactive) | GI50 [16]: > 100 µM (inactive) | GI50 [17]: > 100 µM (inactive) | GI50 [18]: > 100 µM (inactive) | GI50 [19]: > 100 µM (inactive) | GI50 [20]: > 100 µM (inactive) | GI50 [21]: > 100 µM (inactive) | GI50 [22]: > 100 µM (inactive) | GI50 [23]: > 100 µM (inactive) | GI50 [24]: > 100 µM (inactive) | GI50 [25]: > 100 µM (inactive) | GI50 [26]: > 100 µM (inactive) | GI50 [27]: > 100 µM (inactive) | GI50 [28]: > 100 µM (inactive) | GI50 [29]: > 100 µM (inactive) | GI50 [30]: > 100 µM (inactive) | GI50 [31]: > 100 µM (inactive) | GI50 [32]: > 100 µM (inactive) | GI50 [33]: > 100 µM (inactive) | GI50 [34]: > 100 µM (inactive) | GI50 [35]: > 100 µM (inactive) | GI50 [36]: > 100 µM (inactive) | GI50 [37]: > 100 µM (inactive) | GI50 [38]: > 100 µM (inactive) | GI50 [39]: > 100 µM (inactive) | GI50 [40]: > 100 µM (inactive) | GI50 [41]: > 100 µM (inactive) | GI50 [42]: > 100 µM (inactive) | GI50 [43]: > 100 µM (inactive) | GI50 [44]: > 100 µM (inactive) | GI50 [45]: > 100 µM (inactive) | GI50 [46]: > 100 µM (inactive) | GI50 [47]: > 100 µM (inactive) | GI50 [48]: > 100 µM (inactive) | GI50 [49]: > 100 µM (inactive) | GI50 [50]: > 100 µM (inactive) | GI50 [51]: > 100 µM (inactive) | GI50 [52]: > 100 µM (inactive) | GI50 [53]: > 100 µM (inactive) | GI50 [54]: > 100 µM (inactive) | GI50 [55]: 2 µM (inactive)

CNC1c2ccccc2C(=O)c2cc3c(cc21)OCCOCCOCCOCCO3 (stereo not given)
GI50 [1]: > 100 µM (inactive) | GI50 [3]: > 100 µM (inactive) | GI50 [4]: > 100 µM (inactive) | GI50 [6]: 17.1 µM (inactive) | GI50 [7]: > 100 µM (inactive) | GI50 [9]: > 100 µM (inactive) | GI50 [10]: > 100 µM (inactive) | GI50 [11]: > 100 µM (inactive) | GI50 [12]: 39.9 µM | GI50 [13]: 27.4 µM (inactive) | GI50 [14]: > 100 µM (inactive) | GI50 [16]: 54 µM (inactive) | GI50 [17]: > 100 µM (inactive) | GI50 [18]: > 100 µM (inactive) | GI50 [19]: 45.1 µM (inactive) | GI50 [20]: > 100 µM (inactive) | GI50 [22]: > 100 µM (inactive) | GI50 [56]: 55.5 µM (inactive) | GI50 [23]: 82.2 µM (inactive) | GI50 [24]: > 100 µM (inactive) | GI50 [25]: 96.8 µM (inactive) | GI50 [26]: 28.1 µM (inactive) | GI50 [30]: > 100 µM (inactive) | GI50 [31]: 34.1 µM (inactive) | GI50 [32]: > 100 µM (inactive) | GI50 [34]: > 100 µM (inactive) | GI50 [35]: > 100 µM (inactive) | GI50 [57]: > 100 µM (inactive) | GI50 [36]: > 100 µM (inactive) | GI50 [37]: 34.8 µM (inactive) | GI50 [39]: > 100 µM (inactive) | GI50 [40]: > 100 µM (inactive) | GI50 [41]: > 100 µM (inactive) | GI50 [42]: > 100 µM (inactive) | GI50 [44]: > 100 µM (inactive) | GI50 [45]: > 100 µM (inactive) | GI50 [46]: 99.1 µM (inactive) | GI50 [47]: > 100 µM (inactive) | GI50 [48]: > 100 µM (inactive) | GI50 [49]: 28.7 µM (inactive) | GI50 [50]: 81.3 µM (inactive) | GI50 [51]: > 100 µM (inactive) | GI50 [52]: > 100 µM (inactive) | GI50 [53]: > 100 µM (inactive) | GI50 [58]: > 100 µM (inactive) | GI50 [55]: > 100 µM (inactive)

CC(=O)CC1(OC(=O)C2C(C=C(C)C)C2(C)C)C(=O)Nc2ccccc21 (stereo not given)
GI50 [1]: > 100 µM (inactive) | GI50 [2]: > 100 µM (inactive) | GI50 [3]: > 100 µM (inactive) | GI50 [4]: 78.3 µM (inactive) | GI50 [5]: > 100 µM (inactive) | GI50 [6]: 55.3 µM (inactive) | GI50 [7]: > 100 µM (inactive) | GI50 [8]: > 100 µM (inactive) | GI50 [9]: > 100 µM (inactive) | GI50 [10]: > 100 µM (inactive) | GI50 [11]: > 100 µM (inactive) | GI50 [12]: > 100 µM | GI50 [13]: > 100 µM (inactive) | GI50 [14]: > 100 µM (inactive) | GI50 [16]: > 100 µM (inactive) | GI50 [17]: > 100 µM (inactive) | GI50 [18]: > 100 µM (inactive) | GI50 [19]: 77.3 µM (inactive) | GI50 [20]: > 100 µM (inactive) | GI50 [21]: > 100 µM (inactive) | GI50 [22]: > 100 µM (inactive) | GI50 [23]: > 100 µM (inactive) | GI50 [24]: > 100 µM (inactive) | GI50 [25]: > 100 µM (inactive) | GI50 [26]: > 100 µM (inactive) | GI50 [27]: > 100 µM (inactive) | GI50 [28]: > 100 µM (inactive) | GI50 [29]: > 100 µM (inactive) | GI50 [30]: 82.8 µM (inactive) | GI50 [31]: 64.6 µM (inactive) | GI50 [32]: 68.5 µM (inactive) | GI50 [33]: 54.2 µM (inactive) | GI50 [34]: 84.9 µM (inactive) | GI50 [35]: > 100 µM (inactive) | GI50 [57]: > 100 µM (inactive) | GI50 [36]: 37.6 µM (inactive) | GI50 [37]: 96.6 µM (inactive) | GI50 [38]: > 100 µM (inactive) | GI50 [39]: > 100 µM (inactive) | GI50 [40]: > 100 µM (inactive) | GI50 [41]: > 100 µM (inactive) | GI50 [42]: > 100 µM (inactive) | GI50 [43]: > 100 µM (inactive) | GI50 [44]: > 100 µM (inactive) | GI50 [45]: > 100 µM (inactive) | GI50 [46]: > 100 µM (inactive) | GI50 [47]: > 100 µM (inactive) | GI50 [48]: 51.3 µM (inactive) | GI50 [49]: > 100 µM (inactive) | GI50 [50]: > 100 µM (inactive) | GI50 [51]: > 100 µM (inactive) | GI50 [52]: > 100 µM (inactive) | GI50 [53]: > 100 µM (inactive) | GI50 [58]: > 100 µM (inactive) | GI50 [54]: > 100 µM (inactive) | GI50 [55]: > 100 µM (inactive)

CCCCC[C@@H]1OC(=O)[C@@]2(CC3c4ccccc4C2c2ccccc23)[C@H]1C(=O)OC
GI50 [1]: 67.3 µM (inactive) | GI50 [2]: 13.4 µM (inactive) | GI50 [3]: 24.4 µM (inactive) | GI50 [4]: 45.5 µM (inactive) | GI50 [59]: > 100 µM (inactive) | GI50 [5]: 42.6 µM (inactive) | GI50 [6]: 17.2 µM (inactive) | GI50 [7]: 14.2 µM (inactive) | GI50 [8]: > 100 µM (inactive) | GI50 [9]: 39.7 µM (inactive) | GI50 [10]: 23.6 µM (inactive) | GI50 [11]: 12.4 µM (inactive) | GI50 [12]: 29.9 µM | GI50 [13]: 6.35 µM (inactive) | GI50 [14]: > 100 µM (inactive) | GI50 [15]: > 100 µM (inactive) | GI50 [16]: 17.3 µM (inactive) | GI50 [17]: > 100 µM (inactive) | GI50 [18]: > 100 µM (inactive) | GI50 [19]: 15.8 µM (inactive) | GI50 [20]: 45.7 µM (inactive) | GI50 [21]: 71.4 µM (inactive) | GI50 [22]: 55.2 µM (inactive) | GI50 [56]: 21.8 µM (inactive) | GI50 [23]: > 100 µM (inactive) | GI50 [24]: 93.1 µM (inactive) | GI50 [25]: 79.6 µM (inactive) | GI50 [26]: > 10 µM (inactive) | GI50 [27]: 53.2 µM (inactive) | GI50 [29]: 21.9 µM (inactive) | GI50 [30]: 11.6 µM (inactive) | GI50 [32]: 64.6 µM (inactive) | GI50 [33]: 92.5 µM (inactive) | GI50 [34]: 58.2 µM (inactive) | GI50 [35]: > 100 µM (inactive) | GI50 [57]: 79.1 µM (inactive) | GI50 [36]: 14.6 µM (inactive) | GI50 [37]: 9.68 µM (inactive) | GI50 [38]: 24.6 µM (inactive) | GI50 [39]: > 100 µM (inactive) | GI50 [40]: 71 µM (inactive) | GI50 [43]: 28.4 µM (inactive) | GI50 [44]: 17.2 µM (inactive) | GI50 [45]: 84.7 µM (inactive) | GI50 [46]: 74.3 µM (inactive) | GI50 [47]: > 100 µM (inactive) | GI50 [49]: 10.1 µM (inactive) | GI50 [50]: 52 µM (inactive) | GI50 [52]: 35.9 µM (inactive) | GI50 [53]: 45 µM (inactive) | GI50 [58]: 14.5 µM (inactive) | GI50 [54]: 9.29 µM (inactive) | GI50 [55]: 85.3 µM (inactive)
